In ChEMBL document CHEMBL1133700, “Chiral nonsteroidal affinity ligands for the androgen receptor. 1. Bicalutamide analogues bearing electrophilic groups in the B aromatic ring” (J Med Chem, 2000):

Target: T1, Androgen receptor (Rattus norvegicus, UniProt P15207)
T1 sequence (P15207 whole entry): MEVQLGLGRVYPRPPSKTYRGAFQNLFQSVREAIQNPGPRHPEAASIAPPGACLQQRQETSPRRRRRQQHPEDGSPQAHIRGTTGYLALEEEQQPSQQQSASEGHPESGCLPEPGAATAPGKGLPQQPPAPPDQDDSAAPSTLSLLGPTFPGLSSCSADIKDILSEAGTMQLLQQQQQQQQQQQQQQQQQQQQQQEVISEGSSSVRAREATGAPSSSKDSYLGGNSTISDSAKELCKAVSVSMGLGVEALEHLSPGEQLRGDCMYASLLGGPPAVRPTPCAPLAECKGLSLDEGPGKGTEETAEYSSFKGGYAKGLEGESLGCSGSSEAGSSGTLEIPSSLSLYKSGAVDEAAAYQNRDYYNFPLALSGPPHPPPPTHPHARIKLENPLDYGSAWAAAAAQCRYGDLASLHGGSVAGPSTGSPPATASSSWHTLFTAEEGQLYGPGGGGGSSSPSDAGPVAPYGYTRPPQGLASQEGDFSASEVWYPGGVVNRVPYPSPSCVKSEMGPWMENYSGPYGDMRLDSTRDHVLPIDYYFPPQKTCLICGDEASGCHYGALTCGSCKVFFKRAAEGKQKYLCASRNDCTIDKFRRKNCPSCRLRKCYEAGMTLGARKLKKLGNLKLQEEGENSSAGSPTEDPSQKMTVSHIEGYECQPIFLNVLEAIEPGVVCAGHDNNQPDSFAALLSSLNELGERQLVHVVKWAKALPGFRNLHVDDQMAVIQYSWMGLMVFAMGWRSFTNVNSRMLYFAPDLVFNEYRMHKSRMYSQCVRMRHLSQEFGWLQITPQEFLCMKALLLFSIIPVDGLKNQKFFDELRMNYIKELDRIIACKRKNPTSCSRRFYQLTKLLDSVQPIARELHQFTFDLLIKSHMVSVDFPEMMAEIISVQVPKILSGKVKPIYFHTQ
Test: Binding Affinity towards Rat Androgen Receptor was determined using [3H]- mibolerone as radioligand.

| SMILES | Ki [µM] |
| --- | --- |
| C[C@](O)(CS(=O)(=O)c1cccc(NC(=O)CCl)c1)C(=O)Nc1ccc(C#N)c(C(F)(F)F)c1 | 0.13 |
| C[C@](O)(CSc1cccc(NC(=O)CBr)c1)C(=O)Nc1ccc(C#N)c(C(F)(F)F)c1 | > 1 |
| C[C@](O)(CSc1cccc(NC(=O)CCl)c1)C(=O)Nc1ccc(C#N)c(C(F)(F)F)c1 | > 1 |
| C[C@](O)(CS(=O)(=O)c1ccc(N=C=S)cc1)C(=O)Nc1ccc(C#N)c(C(F)(F)F)c1 | 0.041 |
